Here are results for 2 molecules from patent publication US12410148B2, “Antibody drug conjugates” (Pharma Mar, S.A., priority 2013, dated 2025).

In data set [1] the test system is HCC-1954, SK-BR-3, MDA-MB-231 and MCF-7 cells. Briefly: In vitro cytotoxicity, whole breast cancer cell panel. The settings on record: for IC50: Homo sapiens. The text has this:
(§1) All tumor cell lines used in this study were obtained from the American Type Culture Collection (ATCC), unless otherwise indicated; BT-474 (ATCC HTB-20, Breast Ductal Carcinoma), SK-BR-3 (ATCC HTB-30, Breast Adenocarcinoma) and HCC-1954 (ATCC CRL-2338, Breast Ductal Carcinoma), all HER2+; MDA-MB-231 (ATCC HTB-26, Breast Adenocarcinoma) and MCF-7 (ATCC HTB-22 Breast Adenocarcinoma, pleural effusion), all HER2-; SK-OV-3 (ATCC HTB-77, Ovary Adenocarcinoma), HER2+; NB-4 (Acute Promyelocytic Leukemia, APL, CD13+, M. Lanotte et al. (1991) NB4, a maturation inducible cell line with t(15;17) marker isolated from a human acute promyelocytic leukemia (M3). Blood 77, 1080-1086), (CD13+) and U937 (ATCC CRL-1 593.2, Histiocytic Lymphoma, CD13+ and CD4+); Raji (ATCC CCL-86, Burkitt's Lymphoma) (CD13−, CD20+, CD5−, and CD4−); RPMI-8226 (ATCC CRM-CCL-155, Multiple Myeloma) (CD13−, CD20−, CD5− and CD4−); Karpas-299 (DSMZ ACC-31, Non-Hodgkin's Lymphoma) (CD20−, CD5+, and CD4+); MOLT-4 (ATCC CRL-1 582, Acute Lymphoblastic Leukemia, CD5+). In addition, the two Raji cell (ATCC CCL-86, Burkitt's Lymphoma) clones used in this study Raji-clone #10 (high CD5 expression) and Raji-clone18 (null CD5 expression), were provided by Dr. Juan M. Zapata (Instituto de Investigaciones Biomedicas “Alberto Sols”, CSIC-UAM, Madrid, Spain). Cells were maintained at 37° C., 5% CO 2 and 95% humidity in Dulbecco's Modified Eagle's Medium (DMEM) (for MCF and MDA-MB-231 cells), RPMI-1640 (for SK-BR-3, HCC-1954, NB-4, U937, Raji, RPMI-8226, Karpas-299, MOLT-4, Raji-clone #10 and Raji-clone #18 cells), RPMI-1640+1% ITS (for BT-474 cells) or McCOyS (for SK-OV-3 cells), all media supplemented with 10% Fetal Calf Serum (FCS) and 100 units/mL penicillin and streptomycin.
For adherent cells: A colorimetric assay using sulforhodamine B (SRB) was adapted for quantitative measurement of cell growth and cytotoxicity, as described in V. Vichai and K. Kirtikara (2006) Sulforhodamine B colorimetric assay for cytotoxicity screening. Nature Protocols, 1, 1112-1 116. Briefly, cells were seeded in 96-well microtiter plates and allowed to stand for 24 hours in drug-free medium before treatment with vehicle alone or the indicated compounds for 72 hours. For quantification, cells were washed twice with phosphate buffered saline (PBS), fixed for 15 min in 1% glutaraldehyde solution, rinsed twice with PBS, stained in 0.4% SRB-1% acetic acid solution for 30 min, rinsed several times with 1% acetic acid solution and air-dried. SRB was then extracted in 10 mM trizma base solution and the optical density measured at 490 nm in a microplate spectrophotometer. Cell survival was expressed as percentage of control, untreated cell survival.
(§2) The IC50 value refers to the concentration of compound inducing a 50% of cell death as compared to the control cell survival.
Standard dose-response (DR) curves for 72 hours were performed.

Data set [2] concerns Raji-clone #18 (null CD5 expression). Briefly: In vitro cytotoxicity, MTT assay, 72 h dose-response. The class given is cell-based. The settings on record: Homo sapiens, C#18 (null CD5). (In general: Tetrazolium assays rely on reduction of a dye to a coloured formazan, in cell work by metabolically active cells.)
Description: (§5) Briefly, MTT solution was added to the cell cultures at a final concentration of 0.5 mg/mL, and incubated for 1 to 4 hours at 37° C. until formazan crystals are formed. Culture medium is carefully removed from the cell cultures and formazan crystals resuspended in 100 μl DMSO. […] Cell survival was expressed as percentage of control, untreated cell survival.
A further data set deals with SK-BR-3 cells. Briefly: In vitro cytotoxicity, SRB assay, 72 h dose-response. The data set is classed as cell-based. The settings on record: Homo sapiens, SK-BR-3, 72 h, HER2+; 72 h; read-out: IC50.
The subject of data set [3] is NB4, U937, Raji and RPMI-8226 cells. Briefly: In vitro cytotoxicity, whole CD13 cell panel. The note with it: for IC50: Homo sapiens.
From the text: as §1
(§3) For suspension cells: A standard metabolic assay using MTT (3-(4,5-Dimethylthiazol-2-yl)-2,5-diphenyltetrazolium bromide) was adapted for quantitative measurement of cell growth and cytotoxicity, as described in T. Mosmann (1983) Rapid colorimetric assay for cellular growth and survival: Application to proliferation and cytotoxicity assays. J. Immunol. Meth., 65, 55-63. Briefly, MTT solution was added to the cell cultures at a final concentration of 0.5 mg/mL, and incubated for 1 to 4 hours at 37° C. until formazan crystals are formed. Culture medium is carefully removed from the cell cultures and formazan crystals resuspended in 100 μl DMSO. After mixing to assure solubilization, the quantity of formazan (presumably directly proportional to the number of viable cells) is measured by recording changes in absorbance at 570 nm using a plate reading spectrophotometer. Cell survival was expressed as percentage of control, untreated cell survival.
as §2
The in vitro cytotoxic activity of ADC9 along with the parent cytotoxic Compounds 1 and 4, was evaluated against different human tumor cell lines expressing or not the CD13 receptor, including NB4 and U937 (CD13 positive cells) and Raji and RPMI-8226 (CD13 negative cells). Standard dose-response (DR) curves for 72 hours were performed.

The subject of data set [4] is Raji-clone #10 (high CD5 expression). Briefly: In vitro cytotoxicity, MTT assay, 72 h dose-response. The data set is classed as cell-based. The settings on record: Homo sapiens.
Description: as §5
The test system of a further data set is MCF-7 cells. Briefly: In vitro cytotoxicity, SRB assay, 72 h dose-response. The class given is cell-based. The settings on record: Homo sapiens, MCF7, 72 h, HER2−; 72 h; read-out: IC50. The text has this:
(§4) Nature Protocols, 1, 1112-1 116.
Background: In SRB staining, fixed cells bind dye roughly in proportion to their protein.

The test system of the next data set is HCC-1954 cells. The description is as above. The data set is classed as cell-based. The settings on record: Homo sapiens, HCC1954, 72 h, HER2+; 72 h; read-out: IC50.
From the text: as §4

The next data set has as its system MDA-MB-231 cells. Described as above. The class given is cell-based. The note with it: Homo sapiens, MDA-MB-231, 72 h, HER2−; 72 h; read-out: IC50.
From the text: as §4

Another data set relates to NB-4 cells. Description: In vitro cytotoxicity, MTT assay, 72 h dose-response. The data set is classed as cell-based. The settings on record: Homo sapiens, CD13+.
In data set [5] the test system is Raji, RPMI-8226 and Karpas-299 cells. Description: In vitro cytotoxicity, whole CD20 cell panel. The settings on record: Homo sapiens.
From the text: as §1, §3, §2
The in vitro cytotoxic activity of ADC12 along with the parent cytotoxic Compounds 1, 4, and 40, was evaluated was assayed against different human cancer cell lines expressing or not the CD20 antigen, including Raji (CD20 positive cells); RPMI-8226 and Karpas-299 (CD20 negative cells). Standard dose-response (DR) curves for 72 hours were performed.

The subject of data set [6] is Karpas-299, U937, Raji and RPMI-8226 cells. Briefly: In vitro cytotoxicity, whole CD4 cell panel. The note with it: for IC50: Homo sapiens.
From the text: as §1, §3, §2
The in vitro cytotoxic activity of ADC16 along with the parent cytotoxic Compounds 1, 4, and 40, was evaluated against different human cancer cell lines expressing or not the CD4 antigen, including Karpas-299 and U937 (both CD4+); Raji and RPMI-8226 (both CD4−). Standard dose-response (DR) curves for 72 hours were performed.

A further data set has as its system Raji cells. Briefly: In vitro cytotoxicity, MTT assay, 72 h dose-response. The data set is classed as cell-based, human. The note with it: Homo sapiens, Raji, CD13−, CD20+, CD5−, CD4−, read-out: IC50.
The next data set relates to RPMI-8226 cells. The description is as above. The data set is classed as cell-based, human. The note with it: Homo sapiens, RPMI-8226, 72 h, CD13−, CD20−, CD5−, CD4−, read-out: IC50.
Another data set concerns U937 cells. The data set is described as above. The class given is cell-based, human. The note with it: Homo sapiens, U-937, 72 h, CD13+, CD4+, read-out: IC50.
Setting [7] is: read-out: IC50 values along the different cell lines tested (range), four breast cell lines.
[8] abbreviates: read-out: mean IC50 value across the whole cell panel, four breast cell lines.
The mark [9] stands for this setting: read-out: IC50 values across the different cell lines tested (range).
The mark [10] stands for this setting: read-out: mean IC50 value across the whole cell panel.
Where [11] appears, read: long maleimide containing linker.

The term IC50 denotes the concentration needed to halve the response being measured. For orientation: IC20 means the concentration at which the effect reaches the 20% level. A lower IC20 goes with greater potency.

Values after ≈ are worked out from the molar mass of the structure shown. Values joined by “and” are separate entries in the source; they are usually repeats but may differ in a detail not shown here. Equal entries are not always repeated. Where two headings read alike, the source gives them in different places.

Description for NB-4 cells: as §5
Description for Raji cells: as §5
From the text for SK-BR-3 cells: All tumor cell lines used in this study were obtained from the American Type Culture Collection (ATCC), unless otherwise indicated; BT-474 (ATCC HTB-20, Breast Ductal Carcinoma), SK-BR-3 (ATCC HTB-30, Breast Adenocarcinoma) and HCC-1954 (ATCC CRL-2338, Breast Ductal Carcinoma), all HER2+; MDA-MB-231 (ATCC HTB-26, Breast Adenocarcinoma) and MCF-7 (ATCC HTB-22 Breast Adenocarcinoma, pleural effusion), all HER2-; SK-OV-3 (ATCC HTB-77, Ovary Adenocarcinoma), HER2+; NB-4 (Acute Promyelocytic Leukemia, APL, CD13+, M. Lanotte et al. (1991) NB4, a maturation inducible cell line with t(15;17) marker isolated from a human acute promyelocytic leukemia (M3). […] Cells were maintained at 37° C., 5% CO 2 and 95% humidity in Dulbecco's Modified Eagle's Medium (DMEM) (for MCF and MDA-MB-231 cells), RPMI-1640 (for SK-BR-3, HCC-1954, NB-4, U937, Raji, RPMI-8226, Karpas-299, MOLT-4, Raji-clone #10 and Raji-clone #18 cells), RPMI-1640+1% ITS (for BT-474 cells) or McCOyS (for SK-OV-3 cells), all media supplemented with 10% Fetal Calf Serum (FCS) and 100 units/mL penicillin and streptomycin.
For adherent cells: A colorimetric assay using sulforhodamine B (SRB) was adapted for quantitative measurement of cell growth and cytotoxicity, as described in V. Vichai and K. Kirtikara (2006) Sulforhodamine B colorimetric assay for cytotoxicity screening. […] Briefly, cells were seeded in 96-well microtiter plates and allowed to stand for 24 hours in drug-free medium before treatment with vehicle alone or the indicated compounds for 72 hours. For quantification, cells were washed twice with phosphate buffered saline (PBS), fixed for 15 min in 1% glutaraldehyde solution, rinsed twice with PBS, stained in 0.4% SRB-1% acetic acid solution for 30 min, rinsed several times with 1% acetic acid solution and air-dried. SRB was then extracted in 10 mM trizma base solution and the optical density measured at 490 nm in a microplate spectrophotometer. Cell survival was expressed as percentage of control, untreated cell survival.
Description for U937 cells: as §5

For the molecule `COC1=CC[C@@H]([C@@H](C)/C=C(C)/C=C\C=C/C(=O)N[C@H](C(=O)N/C=C\C[C@H](C/C=C(\C)Cl)OC(=O)NCCCNC(=O)OCc2ccc(NC(=O)[C@H](CCCNC(N)=O)NC(=O)[C@@H](NC(=O)CCCCCN3C(=O)C=CC3=O)C(C)C)cc2)C(C)(C)C)OC1=O` [Compound 12], the IC50 in data set [1] (setting [7]) was 0.0076 µg/mL to 0.0305 µg/mL and 6.02 nM to 24.2 nM; in data set [1] (setting [8]) it was 0.0163 µg/mL and 12.9 nM; in data set [2], > 792 nM and > 1 µg/mL; with SK-BR-3 cells it was 0.00905 µg/mL and 7.18 nM; in [3] (setting [9]) it was 0.0044 µg/mL to 0.048 µg/mL and 3.5 nM to 38 nM; in [3] (setting [10]) it was 0.02 µg/mL and 16 nM. For the same molecule, the IC50 is 0.27 µg/mL and 214 nM in [4] (C#10 (high CD5)); 0.215 µM in [4] (clone #10, CD5 expressing); 0.0305 µg/mL and 24.2 nM in the data set with MCF-7 cells; 0.0076 µg/mL and 6.02 nM in the data set with HCC-1954 cells; 0.018 µg/mL and 14.3 nM with MDA-MB-231 cells; 0.00445 µg/mL and 3.53 nM with NB-4 cells. Further, the concentration for half-maximal inhibition (IC50) in [5] (setting [9]) was 0.022 µg/mL to 0.067 µg/mL and 18 nM to 55 nM; in data set [5] (setting [10]) it was 0.039 µg/mL and 31 nM; in data set [6] (setting [9]) it was 0.073 µg/mL to 0.41 µg/mL and 58 nM to 320 nM; in data set [6] (setting [10]), 0.17 µg/mL and 130 nM. In addition, the IC20 in data set [2] was 0.2 µg/mL and 159 nM; in data set [4] (C#10 (high CD5)), 0.15 µg/mL and 119 nM. For the same molecule, the “decrease of cytotoxic activity as compared to Compound 4” value in data set [3] (long linker) was roughly 1 log. Also, the “reduction of cytotoxic activity as compared to Compound 4” value in data set [6] (setting [11]) is recorded as roughly 2 log. In addition, the “reduction of cytotoxic activity as compared to Compound 40” value in data set [6] (setting [11]) is roughly 3 log.
`COC1=CC[C@@H]([C@@H](C)/C=C(C)/C=C\C=C/C(=O)N[C@H](C(=O)N/C=C\C[C@H](C/C=C(\C)Cl)OC(=O)NCCCNC(=O)CCS)C(C)(C)C)OC1=O` [Compound 13]: the half-inhibitory concentration (IC50) is 0.795 to 2.63 ng/mL (≈ 1.06 to 3.5 nM) in data set [1] (setting [7]); 0.00183 µg/mL and 2.44 nM in [1] (setting [8]); 0.0103 µg/mL and 13.7 nM in the data set with Raji cells; 0.0023 µg/mL and 3.06 nM with RPMI-8226 cells; 0.000795 µg/mL and 1.06 nM in the data set with SK-BR-3 cells; 0.00285 µg/mL and 3.8 nM in the data set with U937 cells. The half-maximal inhibitory concentration (IC50) in data set [3] (setting [9]) is 0.0017 µg/mL to 0.01 µg/mL and 2.7 nM to 14 nM; in data set [3] (setting [10]), 0.0043 µg/mL and 5.7 nM; with MCF-7 cells, 0.00243 µg/mL and 3.23 nM; in the data set with HCC-1954 cells, 0.00149 µg/mL and 1.98 nM; in the data set on MDA-MB-231 cells, 0.00263 µg/mL and 3.5 nM; in the data set on NB-4 cells, 0.0017 µg/mL and 2.26 nM. Moreover, the “decrease of cytotoxic activity as compared to Compound 4” value in data set [1] (thiol containing tail) was “about 5 fold”. Moreover, the “reduction of cytotoxic activity as compared to Compound 40” value in data set [3] (thiol containing tail) is listed as “less than 1 log”.
